From patent US4948892A, “Sulfonamid compound useful for treating cardiovascular disorders” (Kowa Comp., Ltd., priority 1988, dated 1990)

Test system: ADP-induced platelet aggregation (rabbit PRP)
Assay: Inhibitory effect on ADP-induced platelet aggregation in PRP
Format: cell-based
Conditions: ADP (2 μM), preincubated 37° C. for 1 minute, inhibition rate (%) at this concentration in parentheses
Description: Rabbit PRP (250 μl) was preincubated with drug samples (10 μl of aqueous solution or 1 μl of DMSO solution) at 37° C. for 1 minute, and ADP (2 μM)-induced platelet aggregation was measured by aggregometer (NKK HEMA TRACERl Model PAT-4M). Inhibitory effects of the drugs were estimated from the standard curve of maximal aggregation.

Q: `O=S(=O)(NCCCN1CCN(C(c2ccccc2)c2ccccc2)CC1)c1ccc(Cl)cc1` [Example 9] was tested. Which “Platelet aggregation inhibitory concentration” value did it give?
A: 10^-4 mole/liter
